In patent US20110294881A1, “METHODS FOR TREATING LOWER URINARY TRACT DISORDERS USING alpha2delta SUBUNIT CALCIUM CHANNEL MODULATORS WITH SMOOTH MUSCLE MODULATORS” (EDUSA PHARMACEUTICALS, INC., priority 2003, published 2011):

What was measured:
[1] = test system: SCI rats; details: Cheng et al., 1995, Brain Res. 678:40-48; cited from earlier work
[2] = test system: α2δ subunit of calcium channels; details: Bryans et al. (1999) Med. Res. Rev. 19:149-177; cited from earlier work
[3] = test system: female rats, dilute acetic acid irritated bladder; experiment: Dilute acetic acid model, acute anesthetized rats: bladder capacity by cystometry; format: in vivo, rat; details: Example 1; for effectiveness of drug alone on bladder capacity: i.v.; for effective dose range of the drug in combination versus the drug alone (isobologram): individual animals, return to 31% of saline control, FIG. 4
Method: (§1) Urethane anesthetized (1.2 g/kg) normal female rats were utilized in this study.
(§2) Animals were dosed by volume of injection=body weight in kg.
Animal Preparation: Female rats (250-300 g body weight) were anesthetized with urethane (1.2 g/kg) and a saline-filled catheter (PE-50) was inserted into the jugular vein for intravenous drug administration. […] The abdominal cavity was moistened with saline and closed by covering with a thin plastic sheet in order to maintain access to the bladder for emptying purposes. Fine silver or stainless steel wire electrodes were inserted into the external urethral sphincter (EUS) percutaneously for electromyography (EMG).
Following 30 minutes of AA infusion, 3 vehicle injections were made at 20 minute intervals to determine vehicle effects, if any.
P<0.050 was considered significant.
as §1, §2

[4] = test system: female cats, dilute acetic acid irritated bladder; experiment: Dilute acetic acid model in cats: bladder capacity and voiding efficiency; format: in vivo; details: cat; 30 mg/kg dose alone
Method: Alpha-chloralose anesthetized (50-100 mg/kg) normal female cats (2.5-3.5 kg; Harlan) were utilized in this study.
Female cats (2.5-3.5 kg; Harlan) had their food removed the night before the experiment. The following morning, the cat was anesthetized with isoflurane and prepped for surgery using aseptic technique. Polyethylene catheters were surgically placed to permit the measurement of bladder pressure, urethral pressure, arterial pressure, respiratory rate as well as for the delivery of drugs. Fine wire electrodes were implanted alongside the external urethral anal sphincter. Following surgery, the cats were slowly switched from the gas anesthetic isoflurane (2-3.5%) to alpha-chloralose (50-100 mg/kg). During control cystometry, saline was slowly infused into the bladder (0.5-1.0 ml/min) for 1 hour. The control cystometry was followed by 0.5% acetic acid in saline for the duration of the experiment. After assessing the cystometric variables under these baseline conditions, the effects of test drug(s) on micturition were determined via a 3-5 point dose response protocols.
For the purposes of assessing synergy using all of the data simultaneously, bladder capacity data for each animal were normalized to % Recovery from Irritation, and this index was used as the measure of efficacy. […]

[5] = preclinical and clinical studies; broad range of oral doses; cited from earlier work

COc1cc(CNC(=O)CCCC/C=C/C(C)C)ccc1O [capsaicin]
bladder capacity to voiding [1]: not effect bladder capacity to voiding | bladder instability [1]: reduce bladder instability

CC(C)C[C@H](CN)CC(=O)O [Pregabalin, (S)-(3-aminomethyl)-5-methylhexanoic acid]
binding affinity for the α2δ subunit of calcium channels relative to gabapentin [2]: even higher binding affinity

NCC1(CC(=O)O)CCCCC1 [gabapentin, 1-(aminomethyl)cyclohexaneacetic acid]
effectiveness of drug alone on bladder capacity [3]: modest effectiveness | effective dose range of the drug in combination versus the drug alone (isobologram) [3]: significantly lower | effect on bladder capacity [4]: no significant effect

CCN(CC)CC#CCOC(=O)C(O)(c1ccccc1)C1CCCCC1 (stereo not drawn) [oxybutynin, 4-diethylaminio-2-butynyl phenylcyclohexyglycolate]
effectiveness of drug alone on bladder capacity [3]: modest effectiveness | effective dose range of the drug in combination versus the drug alone (isobologram) [3]: significantly lower

CC(OC(=O)NCC1(CC(=O)O)CCCCC1)OC(=O)C(C)C (stereo not drawn) [XP13512]
blood levels of gabapentin after oral prodrug [5]: dose proportional blood levels of gabapentin
